Like-named read-outs stand apart in the source and are kept apart here.
Assays:
[1] = test system: B. subtilis VKPM B-8611; assay: Sensitivity to antibiotics of the Bacillus type strains (inhibited growth area); type: cell-based
[2] = test system: B. licheniformis VKPM B-8610; assay: as above; type: cell-based, Bacillus licheniformis

## NCC[C@H](O)C(=O)N[C@@H]1C[C@H](N)[C@@H](O[C@H]2O[C@H](CN)[C@@H](O)[C@H](O)[C@H]2O)[C@H](O)[C@H]1O[C@H]1O[C@H](CO)[C@@H](O)[C@H](N)[C@H]1O [Amikacin]
[1]
  Diameter of the culture's inhibited growth area: 22 ± 0.3 mm
[2]; B. licheniformis VKPM B-8610
  Diameter of the culture's inhibited growth area: 17 ± 0.2 mm

## CC1(C)S[C@@H]2[C@H](NC(=O)[C@H](N)c3ccc(O)cc3)C(=O)N2[C@H]1C(=O)O [Amoxicillin]
[1]
  Diameter of the culture's inhibited growth area: 19 ± 0.2 mm
[2]; B. licheniformis VKPM B-8610
  Diameter of the culture's inhibited growth area: 16 ± 0.1 mm

## CC1(C)S[C@@H]2[C@H](NC(=O)[C@H](N)c3ccccc3)C(=O)N2[C@H]1C(=O)O [Ampicillin]
[1]
  Diameter of the culture's inhibited growth area: 11 ± 0.2 mm
[2]; B. licheniformis VKPM B-8610
  Diameter of the culture's inhibited growth area: ∘

## CC1(C)S[C@@H]2[C@H](NC(=O)[C@H](NC(=O)N3CCNC3=O)c3ccccc3)C(=O)N2[C@H]1C(=O)O [Azlocillin]
[1]
  Diameter of the culture's inhibited growth area: 19 ± 0.1 mm
[2]; B. licheniformis VKPM B-8610
  Diameter of the culture's inhibited growth area: 16 ± 0.1 mm

## CC1(C)S[C@@H]2[C@H](NC(=O)Cc3ccccc3)C(=O)N2[C@H]1C(=O)O [Benzylpenicillin]
[1]
  Diameter of the culture's inhibited growth area: 7 ± 0.1 mm
[2]; B. licheniformis VKPM B-8610
  Diameter of the culture's inhibited growth area: 3 ± 0.2 mm

## CC1(C)S[C@@H]2[C@H](NC(=O)C(C(=O)O)c3ccccc3)C(=O)N2[C@H]1C(=O)O (stereo partly shown) [Carbenicillin]
[1]
  Diameter of the culture's inhibited growth area: 23 ± 0.5 mm
[2]; B. licheniformis VKPM B-8610
  Diameter of the culture's inhibited growth area: 20 ± 0.1 mm

## Cn1nnnc1SCC1=C(C(=O)O)N2C(=O)[C@@H](NC(=O)[C@H](O)c3ccccc3)[C@H]2SC1 [Cefamandole]
[1]
  Diameter of the culture's inhibited growth area: 35 ± 0.3 mm
[2]; B. licheniformis VKPM B-8610
  Diameter of the culture's inhibited growth area: 15 ± 0.1 mm

## Cc1nnc(SCC2=C(C(=O)O)N3C(=O)[C@@H](NC(=O)Cn4cnnn4)[C@H]3SC2)s1 [Cefazolin]
[1]
  Diameter of the culture's inhibited growth area: 25 ± 0.2 mm
[2]; B. licheniformis VKPM B-8610
  Diameter of the culture's inhibited growth area: 19 ± 0.2 mm

## CCN1CCN(C(=O)N[C@@H](C(=O)N[C@@H]2C(=O)N3C(C(=O)O)=C(CSc4nnnn4C)CS[C@H]23)c2ccc(O)cc2)C(=O)C1=O [Cefoperazone]
[1]
  Diameter of the culture's inhibited growth area: 15 ± 0.2 mm
[2]; B. licheniformis VKPM B-8610
  Diameter of the culture's inhibited growth area: 13 ± 0.1 mm

## CO/N=C(\C(=O)N[C@@H]1C(=O)N2C(C(=O)O)=C(COC(C)=O)CS[C@H]12)c1csc(N)n1 [Cefotaxime]
[1]
  Diameter of the culture's inhibited growth area: 15 ± 0.1 mm
[2]; B. licheniformis VKPM B-8610
  Diameter of the culture's inhibited growth area: 9 ± 0.1 mm

## CO[C@@]1(NC(=O)Cc2cccs2)C(=O)N2C(C(=O)O)=C(COC(N)=O)CS[C@@H]21 [Cefoxitin]
[1]
  Diameter of the culture's inhibited growth area: 18 ± 0.1 mm
[2]; B. licheniformis VKPM B-8610
  Diameter of the culture's inhibited growth area: 13 ± 0.1 mm

## CC(C)(O/N=C(\C(=O)N[C@@H]1C(=O)N2C(C(=O)[O-])=C(C[n+]3ccccc3)CS[C@H]12)c1csc(N)n1)C(=O)O [Ceftazidime]
[1]
  Diameter of the culture's inhibited growth area: 6 ± 0.3 mm
[2]; B. licheniformis VKPM B-8610
  Diameter of the culture's inhibited growth area: 13 ± 0.2 mm

## CO/N=C(\C(=O)N[C@@H]1C(=O)N2C(C(=O)O)=CCS[C@H]12)c1csc(N)n1 [Ceftizoxime]
[1]
  Diameter of the culture's inhibited growth area: 3 ± 0.1 mm
[2]; B. licheniformis VKPM B-8610
  Diameter of the culture's inhibited growth area: 11 ± 0.1 mm

## CO/N=C(\C(=O)N[C@@H]1C(=O)N2C(C(=O)O)=C(CSc3nc(=O)c(=O)[nH]n3C)CS[C@H]12)c1csc(N)n1 [Ceftriaxone]
[1]
  Diameter of the culture's inhibited growth area: 20 ± 0.4 mm
[2]; B. licheniformis VKPM B-8610
  Diameter of the culture's inhibited growth area: 12 ± 0.2 mm

## CO/N=C(\C(=O)N[C@@H]1C(=O)N2C(C(=O)O)=C(COC(N)=O)CS[C@H]12)c1ccco1 [Cefuroxime]
[1]
  Diameter of the culture's inhibited growth area: 2 ± 0.1 mm
[2]; B. licheniformis VKPM B-8610
  Diameter of the culture's inhibited growth area: 3 ± 0.1 mm

## CC(=O)OCC1=C(C(=O)O)N2C(=O)[C@@H](NC(=O)Cc3cccs3)[C@H]2SC1 [Cephalothin]
[1]
  Diameter of the culture's inhibited growth area: 35 ± 0.1 mm
[2]; B. licheniformis VKPM B-8610
  Diameter of the culture's inhibited growth area: 21 ± 0.3 mm

## O=C(N[C@H](CO)[C@H](O)c1ccc([N+](=O)[O-])cc1)C(Cl)Cl [Chloramphenicol]
[1]
  Diameter of the culture's inhibited growth area: 18 ± 0.3 mm
[2]; B. licheniformis VKPM B-8610
  Diameter of the culture's inhibited growth area: 10 ± 0.1 mm

## CCC[C@@H]1C[C@@H](C(=O)N[C@@H]([C@H]2O[C@H](SC)[C@H](O)[C@@H](O)[C@H]2O)[C@H](C)Cl)N(C)C1 [Clindamycin]
[1]
  Diameter of the culture's inhibited growth area: 9 ± 0.2 mm
[2]; B. licheniformis VKPM B-8610
  Diameter of the culture's inhibited growth area: 12 ± 0.1 mm

## C[C@@H](O)[C@H]1C(=O)N2C(C(=O)O)=C(SCCN=CN)C[C@H]12 [Imipenem]
[1]
  Diameter of the culture's inhibited growth area: 38 ± 0.2 mm
[2]; B. licheniformis VKPM B-8610
  Diameter of the culture's inhibited growth area: 30 ± 0.1 mm

## NC[C@H]1O[C@H](O[C@H]2[C@H](O)[C@@H](O[C@H]3O[C@H](CO)[C@@H](O)[C@H](N)[C@H]3O)[C@H](N)C[C@@H]2N)[C@H](O)[C@@H](O)[C@@H]1O [Kanamycin]
[1]
  Diameter of the culture's inhibited growth area: 22 ± 0.2 mm
[2]; B. licheniformis VKPM B-8610
  Diameter of the culture's inhibited growth area: 21 ± 0.1 mm

## COc1cccc(OC)c1C(=O)N[C@@H]1C(=O)N2[C@@H]1SC(C)(C)[C@@H]2C(=O)O [Methicillin]
[1]
  Diameter of the culture's inhibited growth area: 20 ± 0.1 mm
[2]; B. licheniformis VKPM B-8610
  Diameter of the culture's inhibited growth area: 10 ± 0.1 mm

## CC1(C)S[C@@H]2[C@H](NC(=O)[C@H](NC(=O)N3CCN(S(C)(=O)=O)C3=O)c3ccccc3)C(=O)N2[C@H]1C(=O)O [Mezlocillin]
[1]
  Diameter of the culture's inhibited growth area: 21 ± 0.2 mm
[2]; B. licheniformis VKPM B-8610
  Diameter of the culture's inhibited growth area: 15 ± 0.2 mm

## CO[C@@]1(NC(=O)C(C(=O)O)c2ccc(O)cc2)C(=O)N2C(C(=O)O)=C(CSc3nnnn3C)CO[C@@H]21 (stereo partly shown) [Moxalactam]
[1]
  Diameter of the culture's inhibited growth area: 11 ± 0.2 mm
[2]; B. licheniformis VKPM B-8610
  Diameter of the culture's inhibited growth area: 12 ± 0.3 mm

## CCn1cc(C(=O)O)c(=O)c2ccc(C)nc21 [Nalidixic acid]
[1]
  Diameter of the culture's inhibited growth area: 21 ± 0.1 mm
[2]; B. licheniformis VKPM B-8610
  Diameter of the culture's inhibited growth area: 15 ± 0.1 mm

## O=C1CN(/N=C/c2ccc([N+](=O)[O-])o2)C(=O)N1 [Nitrofurantoin]
[1]
  Diameter of the culture's inhibited growth area: 15 ± 0.2 mm
[2]; B. licheniformis VKPM B-8610
  Diameter of the culture's inhibited growth area: 20 ± 0.1 mm

## CCn1cc(C(=O)O)c(=O)c2cc(F)c(N3CCNCC3)cc21 [Norfloxacin]
[1]
  Diameter of the culture's inhibited growth area: 24 ± 0.2 mm
[2]; B. licheniformis VKPM B-8610
  Diameter of the culture's inhibited growth area: 25 ± 0.2 mm

## Cc1onc(-c2ccccc2)c1C(=O)N[C@@H]1C(=O)N2[C@@H]1SC(C)(C)[C@@H]2C(=O)O [Oxacillin]
[1]
  Diameter of the culture's inhibited growth area: 15 ± 0.3 mm
[2]; B. licheniformis VKPM B-8610
  Diameter of the culture's inhibited growth area: 11 ± 0.1 mm

## CCN1CCN(C(=O)N[C@@H](C(=O)N[C@@H]2C(=O)N3[C@@H]2SC(C)(C)[C@@H]3C(=O)O)c2ccccc2)C(=O)C1=O [Piperacillin]
[1]
  Diameter of the culture's inhibited growth area: 15 ± 0.3 mm
[2]; B. licheniformis VKPM B-8610
  Diameter of the culture's inhibited growth area: 11 ± 0.1 mm

## CN(C)[C@@H]1C(O)=C(C(N)=O)C(=O)[C@@]2(O)C(O)=C3C(=O)c4c(O)cccc4[C@@](C)(O)[C@H]3C[C@@H]12 [Tetracycline]
[1]
  Diameter of the culture's inhibited growth area: 26 ± 0.1 mm
[2]
  Diameter of the culture's inhibited growth area: 24 ± 0.1 mm

## CC1(C)S[C@@H]2[C@H](NC(=O)[C@H](C(=O)O)c3ccsc3)C(=O)N2[C@H]1C(=O)O [Ticarcillin]
[1]
  Diameter of the culture's inhibited growth area: 25 ± 0.4 mm
[2]; B. licheniformis VKPM B-8610
  Diameter of the culture's inhibited growth area: 21 ± 0.2 mm

## NC[C@H]1O[C@H](O[C@H]2[C@H](O)[C@@H](O[C@H]3O[C@H](CO)[C@@H](O)[C@H](N)[C@H]3O)[C@H](N)C[C@@H]2N)[C@H](N)C[C@@H]1O [Tobramycin]
[1]
  Diameter of the culture's inhibited growth area: 25 ± 0.1 mm
[2]; B. licheniformis VKPM B-8610
  Diameter of the culture's inhibited growth area: 20 ± 0.2 mm

## COc1cc(Cc2cnc(N)nc2N)cc(OC)c1OC [Trimethoprim]
[1]
  Diameter of the culture's inhibited growth area: 23 ± 0.1 mm
[2]; B. licheniformis VKPM B-8610
  Diameter of the culture's inhibited growth area: 25 ± 0.2 mm

## CN[C@H](CC(C)C)C(=O)N[C@H]1C(=O)N[C@@H](CC(N)=O)C(=O)N[C@H]2C(=O)N[C@H]3C(=O)N[C@H](C(=O)N[C@H](C(=O)O)c4cc(O)cc(O)c4-c4cc3ccc4O)[C@H](O)c3ccc(c(Cl)c3)Oc3cc2cc(c3O[C@@H]2O[C@H](CO)[C@@H](O)[C@H](O)[C@H]2O[C@H]2C[C@](C)(N)[C@H](O)[C@H](C)O2)Oc2ccc(cc2Cl)[C@H]1O [Vancomycin]
[1]
  Diameter of the culture's inhibited growth area: 12 ± 0.1 mm
[2]; B. licheniformis VKPM B-8610
  Diameter of the culture's inhibited growth area: 10 ± 0.1 mm

## Gentamicin
[1]
  Diameter of the culture's inhibited growth area: 25 ± 0.3 mm
[2]; B. licheniformis VKPM B-8610
  Diameter of the culture's inhibited growth area: 19 ± 0.2 mm

## Polymyxin B
[1]
  Diameter of the culture's inhibited growth area: 11 ± 0.1 mm
[2]; B. licheniformis VKPM B-8610
  Diameter of the culture's inhibited growth area: 10 ± 0.2 mm

— US20140377241A1, “BIOPREPARATION BALIS FOR THE PROPHYLAXIS AND TREATMENT OF INFECTIOUS DISEASES” (priority 2010, published 2014)
